Counter-ions that a name gives are not always drawn. Like-named read-outs stand apart in the source and are kept apart here.
Legend:
Human JAK3 = biological target: T1, Human JAK3 (Homo sapiens, UniProt P52333); assay: In-vitro kinase inhibition test, JAK3; assay type: biochemical; conditions: compound at 1 uM; read-out: JAK3 kinase-phosphorylation inhibitory level (% inhibition)
T1 construct: purchased Millipore, Germany
T1 sequence (P52333 1-1124): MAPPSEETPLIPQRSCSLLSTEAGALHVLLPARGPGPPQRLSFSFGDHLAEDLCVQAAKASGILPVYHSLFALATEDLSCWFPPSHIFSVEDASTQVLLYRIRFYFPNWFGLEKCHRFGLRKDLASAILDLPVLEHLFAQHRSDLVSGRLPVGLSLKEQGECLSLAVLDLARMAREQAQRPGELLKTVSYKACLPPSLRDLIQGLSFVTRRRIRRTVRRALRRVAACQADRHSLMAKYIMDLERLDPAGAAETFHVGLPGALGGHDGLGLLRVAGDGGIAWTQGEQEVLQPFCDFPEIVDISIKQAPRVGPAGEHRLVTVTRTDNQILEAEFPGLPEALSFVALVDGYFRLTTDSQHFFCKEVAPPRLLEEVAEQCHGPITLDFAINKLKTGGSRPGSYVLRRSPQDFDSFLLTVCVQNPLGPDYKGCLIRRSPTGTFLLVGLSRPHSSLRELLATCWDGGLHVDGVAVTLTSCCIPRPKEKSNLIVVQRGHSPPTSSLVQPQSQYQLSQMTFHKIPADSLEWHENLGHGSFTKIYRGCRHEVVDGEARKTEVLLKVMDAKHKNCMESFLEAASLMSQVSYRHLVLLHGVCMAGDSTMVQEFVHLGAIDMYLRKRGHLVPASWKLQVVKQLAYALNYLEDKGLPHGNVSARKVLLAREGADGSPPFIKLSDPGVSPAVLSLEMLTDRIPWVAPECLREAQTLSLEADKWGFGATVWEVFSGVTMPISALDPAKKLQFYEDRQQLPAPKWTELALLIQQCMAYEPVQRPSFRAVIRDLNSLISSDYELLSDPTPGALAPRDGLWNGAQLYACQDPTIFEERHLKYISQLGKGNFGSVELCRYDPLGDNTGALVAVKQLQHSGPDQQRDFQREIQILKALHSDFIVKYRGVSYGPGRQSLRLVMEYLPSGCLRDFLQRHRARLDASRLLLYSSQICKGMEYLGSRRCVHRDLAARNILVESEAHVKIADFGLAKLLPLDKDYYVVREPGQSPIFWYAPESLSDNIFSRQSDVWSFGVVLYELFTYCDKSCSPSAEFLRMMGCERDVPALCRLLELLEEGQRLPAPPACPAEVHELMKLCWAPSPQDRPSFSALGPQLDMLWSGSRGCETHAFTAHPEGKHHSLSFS

Human JAK2 = biological target: T2, Human JAK2 (Homo sapiens, UniProt O60674); assay: In-vitro kinase inhibition test, JAK2; assay type: biochemical; conditions: compound at 1 uM; read-out: JAK2 kinase-phosphorylation inhibitory level (% inhibition)
T2 construct: purchased Millipore, Germany
T2 sequence (O60674 whole entry): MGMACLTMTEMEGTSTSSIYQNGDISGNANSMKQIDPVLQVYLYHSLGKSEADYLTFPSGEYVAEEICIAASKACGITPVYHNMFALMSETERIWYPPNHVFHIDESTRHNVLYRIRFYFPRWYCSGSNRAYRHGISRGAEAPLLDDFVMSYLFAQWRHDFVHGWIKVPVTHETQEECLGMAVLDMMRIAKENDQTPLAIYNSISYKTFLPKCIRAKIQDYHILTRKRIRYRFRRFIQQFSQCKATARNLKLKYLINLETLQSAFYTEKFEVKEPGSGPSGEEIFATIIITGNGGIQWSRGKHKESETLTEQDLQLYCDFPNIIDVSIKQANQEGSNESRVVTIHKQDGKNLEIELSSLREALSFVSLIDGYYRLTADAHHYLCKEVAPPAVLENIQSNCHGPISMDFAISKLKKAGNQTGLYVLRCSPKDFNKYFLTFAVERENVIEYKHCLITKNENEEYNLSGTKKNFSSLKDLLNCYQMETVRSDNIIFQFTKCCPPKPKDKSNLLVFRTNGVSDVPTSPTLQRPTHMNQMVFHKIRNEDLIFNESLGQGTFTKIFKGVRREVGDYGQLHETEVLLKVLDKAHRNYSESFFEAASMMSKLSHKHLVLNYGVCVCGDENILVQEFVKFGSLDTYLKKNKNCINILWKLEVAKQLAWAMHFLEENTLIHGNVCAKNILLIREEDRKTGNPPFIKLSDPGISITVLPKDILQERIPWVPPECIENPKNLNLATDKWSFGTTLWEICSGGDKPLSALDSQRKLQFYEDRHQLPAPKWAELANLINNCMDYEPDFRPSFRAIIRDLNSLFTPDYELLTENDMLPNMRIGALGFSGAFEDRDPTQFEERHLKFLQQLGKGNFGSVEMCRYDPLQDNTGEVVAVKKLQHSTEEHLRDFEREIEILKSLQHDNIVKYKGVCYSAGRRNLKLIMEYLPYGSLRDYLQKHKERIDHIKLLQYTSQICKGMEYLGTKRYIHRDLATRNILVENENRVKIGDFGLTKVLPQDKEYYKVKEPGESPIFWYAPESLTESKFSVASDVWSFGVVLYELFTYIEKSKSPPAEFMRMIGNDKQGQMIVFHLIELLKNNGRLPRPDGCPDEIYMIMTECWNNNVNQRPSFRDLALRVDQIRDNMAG
Experimental: (§1) Human-derived JAK1, JAK2, JAK3 and TYK2 (Millipore, Germany) were used as kinases. Each kinase was diluted with an appropriate buffer as described below, and then mixed with reaction reagents.
(§2) 3-morpholinopropane-1-sulfonic acid (MOPS) and EDTA were dissolved in deionized water at a concentration of 20 mM and 1 mM, respectively, and then 100 μL of β-mercaptoethanol, 10 μL of Brij-35™, 5 mL of glycerol, and 100 mg of bovine serum albumin (BSA), each per 100 mL of the solution, were added to the solution, thereby preparing a dilution buffer for JAK2, JAK3, and TYK2.
(§3) Each compound was dissolved in a 100%-DMSO solution at a concentration of about 50 μM. This prepared solution was reacted with reaction reagents in each well of a 96-well plate until a final concentration of the compound reached 1 μM. A detailed experimental method for each kinase is as follows.
(§4) After reaction for about 40 minutes at room temperature, the reaction was stopped by adding 5 uL of a 3% (v/v) phosphoric acid solution.
(§5) The inhibitory levels (% inhibition) represent a percentage of reduction in phosphorylation activity in each test group with respect to the phosphorylation activity of a corresponding kinase in a negative control group lacking any of the compounds synthesized in the examples. % inhibition=[(Scintillation value of Test compound non-treatment group−Scintillation value of Test compound treatment group)/(Scintillation value of Test compound non-treatment group)]×100

Human JAK1 = biological target: T3, Human JAK1 (Homo sapiens, UniProt P23458); assay: In-vitro kinase inhibition test, JAK1; assay type: biochemical; conditions: for inhibition at 1 µM: compound at 1 uM, read-out: JAK1 kinase-phosphorylation inhibitory level (% inhibition); for JAK1/JAK2: ratio of % inhibition of JAK1 to JAK2 at 1 uM
T3 construct: purchased Millipore, Germany
T3 sequence (P23458 whole entry): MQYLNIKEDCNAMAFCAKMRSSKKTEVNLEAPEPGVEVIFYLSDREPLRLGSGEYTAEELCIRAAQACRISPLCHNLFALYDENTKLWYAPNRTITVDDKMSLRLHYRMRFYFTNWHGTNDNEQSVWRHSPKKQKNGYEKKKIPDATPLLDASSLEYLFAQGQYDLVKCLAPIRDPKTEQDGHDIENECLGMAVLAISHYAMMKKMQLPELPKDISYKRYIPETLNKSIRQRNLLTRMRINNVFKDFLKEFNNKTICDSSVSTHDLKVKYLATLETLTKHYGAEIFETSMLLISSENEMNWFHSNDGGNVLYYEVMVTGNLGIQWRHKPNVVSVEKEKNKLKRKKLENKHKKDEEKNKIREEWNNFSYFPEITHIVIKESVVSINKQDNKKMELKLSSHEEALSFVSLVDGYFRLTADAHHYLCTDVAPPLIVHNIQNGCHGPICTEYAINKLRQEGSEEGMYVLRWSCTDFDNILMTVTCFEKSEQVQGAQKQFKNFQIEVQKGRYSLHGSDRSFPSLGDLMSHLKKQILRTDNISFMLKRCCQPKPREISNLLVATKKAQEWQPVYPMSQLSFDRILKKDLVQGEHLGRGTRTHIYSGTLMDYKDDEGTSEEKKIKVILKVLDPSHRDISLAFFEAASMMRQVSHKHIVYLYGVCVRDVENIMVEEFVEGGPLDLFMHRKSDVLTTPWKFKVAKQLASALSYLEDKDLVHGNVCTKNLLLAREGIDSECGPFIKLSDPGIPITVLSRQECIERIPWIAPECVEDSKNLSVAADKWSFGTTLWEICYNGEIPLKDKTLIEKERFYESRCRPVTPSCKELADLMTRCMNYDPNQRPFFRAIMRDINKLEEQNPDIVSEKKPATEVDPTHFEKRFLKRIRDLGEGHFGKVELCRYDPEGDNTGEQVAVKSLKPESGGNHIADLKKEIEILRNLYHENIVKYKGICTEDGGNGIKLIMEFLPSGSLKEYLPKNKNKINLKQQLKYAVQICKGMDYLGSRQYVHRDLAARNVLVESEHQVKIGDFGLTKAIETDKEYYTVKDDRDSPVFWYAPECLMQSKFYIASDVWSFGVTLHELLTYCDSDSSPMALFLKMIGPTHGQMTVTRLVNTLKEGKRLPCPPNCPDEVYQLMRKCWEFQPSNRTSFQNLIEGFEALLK

Human TYK2 = biological target: T4, Human TYK2 (Homo sapiens, UniProt P29597); assay: In-vitro kinase inhibition test, TYK2; assay type: biochemical; conditions: read-out: TYK2 kinase-phosphorylation inhibitory level (% inhibition)
T4 construct: purchased Millipore, Germany
T4 sequence (P29597 whole entry): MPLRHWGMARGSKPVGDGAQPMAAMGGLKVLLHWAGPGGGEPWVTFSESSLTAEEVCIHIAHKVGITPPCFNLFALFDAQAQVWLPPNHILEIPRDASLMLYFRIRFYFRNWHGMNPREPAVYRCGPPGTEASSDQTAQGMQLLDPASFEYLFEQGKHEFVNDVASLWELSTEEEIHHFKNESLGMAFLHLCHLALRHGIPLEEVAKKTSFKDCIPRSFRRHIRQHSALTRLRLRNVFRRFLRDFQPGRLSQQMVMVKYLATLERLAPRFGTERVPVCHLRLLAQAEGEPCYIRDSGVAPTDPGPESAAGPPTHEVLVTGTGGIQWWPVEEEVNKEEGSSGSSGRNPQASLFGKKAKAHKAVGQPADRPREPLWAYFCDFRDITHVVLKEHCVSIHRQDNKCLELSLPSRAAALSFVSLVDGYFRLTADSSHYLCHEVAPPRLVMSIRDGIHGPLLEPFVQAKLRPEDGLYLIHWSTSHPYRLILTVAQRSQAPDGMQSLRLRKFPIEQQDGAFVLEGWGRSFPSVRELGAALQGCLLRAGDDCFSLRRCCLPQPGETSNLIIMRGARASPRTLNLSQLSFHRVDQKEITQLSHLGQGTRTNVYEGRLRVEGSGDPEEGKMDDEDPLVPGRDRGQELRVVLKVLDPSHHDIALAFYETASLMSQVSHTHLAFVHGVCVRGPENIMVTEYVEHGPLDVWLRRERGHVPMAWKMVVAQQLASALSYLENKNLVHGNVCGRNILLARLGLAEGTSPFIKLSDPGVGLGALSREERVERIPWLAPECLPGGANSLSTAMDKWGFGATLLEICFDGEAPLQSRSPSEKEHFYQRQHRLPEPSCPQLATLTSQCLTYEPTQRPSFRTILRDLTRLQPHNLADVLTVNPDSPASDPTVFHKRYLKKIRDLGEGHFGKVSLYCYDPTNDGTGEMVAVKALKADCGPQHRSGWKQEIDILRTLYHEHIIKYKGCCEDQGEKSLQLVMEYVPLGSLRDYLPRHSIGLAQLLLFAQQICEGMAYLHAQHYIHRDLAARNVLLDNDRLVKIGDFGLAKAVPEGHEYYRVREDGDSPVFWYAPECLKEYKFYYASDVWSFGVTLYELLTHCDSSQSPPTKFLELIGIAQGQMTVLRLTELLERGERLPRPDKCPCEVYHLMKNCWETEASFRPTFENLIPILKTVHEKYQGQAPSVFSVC
Experimental: as §1, §2, §3, §4, §5

[1] = Pharmacokinetic test, oral or intravenous administration; assay type: in vivo; conditions: mouse, blood, 20 mg/kg, mice
Experimental: A dose of the compound was about 20 mg/kg, which was orally or intraveneously administered one time, followed by blood collection from the jugular veins of three mice at each of blood sampling intervals, i.e., 0, 0.25 (15 min), 0.5 (30 min), 1, 2, 4, 6, 12, and 24 hours from the administration, and measuring a drug concentration.

[2] = comparative drug (EMA), cited from earlier work

| inhibition at 1 µM (Human JAK3) [%] | inhibition at 1 µM (Human JAK2) [%] | inhibition at 1 µM (Human JAK1) [%] | JAK1/JAK2 (Human JAK1) | inhibition at 1 µM (Human TYK2; compound at 1 uM) [%] | Structure (SMILES) | other results |
| --- | --- | --- | --- | --- | --- | --- |
| 89 | 79 | 95 | 1.20 | 86 | C[C@@H]1CCN(S(=O)(=O)c2cccc(C#N)c2)C[C@@H]1N(C)c1ncnc2[nH]ccc12 [Example 42, 3-(((3R,4R)-4-methyl-3-(methyl(7H-pyrrolo[2,3-d]pyrimidine-4-yl)amino)piperidine-1-yl)sulfonyl)benzonitrile] |  |
| 36 | 19 | 86 | 4.53 | 38 | CN(c1ncnc2[nH]ccc12)[C@H]1CN(C(=O)CC#N)CC1(C)C [Example 43, (R)-3-(3,3-dimethyl-4-(methyl(7H-pyrrolo[2,3-d]pyrimidine-4-yl)amino)pyrrolidine-1-yl)-3-oxopropanenitrile] |  |
| 1 | -8 | 26 | ∞ | -1 | CN(c1ncnc2[nH]ccc12)[C@@H]1CN(C(=O)CC#N)CC1(C)C [Example 44, (S)-3-(3,3-dimethyl-4-(methyl(7H-pyrrolo[2,3-d]pyrimidine-4-yl)amino)pyrrolidine-1-yl)-3-oxopropanenitrile] |  |
| 14 | 5 | 35 | 7.00 | 10 | N#CCC(=O)N1CCC(Oc2ncnc3[nH]ccc23)CC1 [Example 45, 3-(4-((7H-pyrrolo[2,3-d]pyrimidine-4-yl)oxy)piperidine-1-yl)-3-oxopropanenitrile] |  |
| 16 | 10 | 30 | 3.00 | 20 | N#CCC(=O)N1CCCC(COc2ncnc3[nH]ccc23)C1 (stereo not shown) [Example 47, 3-(3-(((7H-pyrrolo[2,3-d]pyrimidine-4-yl)oxy)methyl)piperidine-1-yl)-3-oxopropanenitrile] |  |
| 19 | 17 | 25 | 1.47 | 7 | N#Cc1cccc(S(=O)(=O)N2CCCC(COc3ncnc4[nH]ccc34)C2)c1 (stereo not shown) [Example 48, 3-((3-(((7H-pyrrolo[2,3-d]pyrimidine-4-yl)oxy)methyl)piperidine-1-yl)sulfonyl)benzonitrile] |  |
| 1 | -7 | 54 | ∞ | 21 | N#CCC(=O)N1C[C@H]2CCCN(c3ncnc4[nH]ccc34)[C@H]2C1 [Example 49, 3-((4aR,7aR)-1-(7H-pyrrolo[2,3-d]pyrimidine-4-yl)octahydro-6H-pyrrolo[3,4-b]pyridine-6-yl)-3-oxopropanenitrile] |  |
| 1 | -10 | 14 | ∞ | 6 | N#CCC(=O)N1C[C@@H]2CCCN(c3ncnc4[nH]ccc34)[C@@H]2C1 [Example 50, 3-((4aS,7aS)-1-(7H-pyrrolo[2,3-d]pyrimidine-4-yl)octahydro-6H-pyrrolo[3,4-b]pyridine-6-yl)-3-oxopropanenitrile] |  |
|  |  |  |  |  | CN(c1ncnc2[nH]ccc12)[C@@H]1CCN(C(=O)CC#N)C1.Cl [Example 51, (R)-3-(3-(methyl(7H-pyrrolo[2,3-d]pyrimidine-4-yl)amino)pyrrolidine-1-yl)-3-oxopropanenitrile hydrochloride] | AUC(0-t) ([1]; intravenous injection): 18900 ng·h/mL; Cmax ([1]; intravenous injection): 15500 ng/mL; half-life ([1]; intravenous injection): 1.97 h; AUC(0-t) ([1]; oral administration): 13100 ng·h/mL; Cmax ([1]; oral administration): 4530 ng/mL; Tmax ([1]; oral administration): 0.5 h; bioavailability ([1]; oral administration): 69.1%; half-life ([1]; oral administration): 2.78 h |
|  |  |  |  |  | CC1CCN(C(=O)CC#N)CC1N(C)c1ncnc2[nH]ccc12 (stereo not shown) [tofacitinib citrate, 3-{4-methyl-3-[methyl-(7H-pyrrolo[2,3-d]pyrimidine-4-yl)-amino]-piperidine-1-yl}-3-oxo-propionitrile] | AUC0→t ([2]; intravenous injection, 5 mg/kg): 3180 ng·h/mL; t1/2 ([2]; intravenous injection, 5 mg/kg): 2.8 h; AUC0→t ([2]; oral administration, 10 mg/kg): 2750 ng·h/mL; Cmax ([2]; oral administration, 10 mg/kg): 2400 ng/mL; bioavailability ([2]; oral administration, 10 mg/kg): 43.3%; t1/2 ([2]; oral administration, 10 mg/kg): 2.0 h; inhibition at 1 µM (Human TYK2): 100% |
